The data set in a line: Human HepG2 cell viability assay in 384 well format. In kind it is toxicity, cell-based. The arrangement: dose 125 nL, time 70.5 hour; concentration not given beside the values. To be noted: HepG2 cells, read-out: Inhibition.
Regarding `COc1cc(C)ccc1OCC(=O)NS(=O)(=O)c1ccc(Br)s1`, the cytotoxicity at 70.5 h was -4.31%.

On to `C[C@@H]1CN(C(=O)CCCN2CCOCC2)CC[C@@]1(O)C1CCC1`, for which the cytotoxicity at 70.5 h was -3.73%. For `Cc1cc2ncc(C(C)NCc3cccnc3)c(C)n2n1` (centres undefined), the cytotoxicity at 70.5 h is -3.89%. On to `CN1CCCC(c2cccc(-c3cccc(C(F)(F)F)c3)n2)C1` (centres undefined), for which the cytotoxicity at 70.5 h was -2.8%. Take `Cc1c(NC(=O)NC2CCOCC2)cccc1C(=O)N1CCCC1`: the cytotoxicity at 70.5 h amounted to 10.6%.

For the compound `Cc1cccc(CN2CCCC2c2cccc(CCC(=O)O)n2)c1` (centres undefined), the cytotoxicity at 70.5 h was found to be 15.7%. To `CC1=CC[C@@H]2CN(C(=O)c3ccc(-c4cc[nH]n4)cc3)C[C@@H]2C1` belongs 0.519%; to `CCSc1ccc(C(=O)N2CCCCC2C(=O)NC(C)(C)C)cn1` (centres undefined), -7.45%; to `CN1C[C@@H](N)C[C@H]1c1nc(-c2ccc3c(c2)OCO3)no1`, -1.52%. With `COCCSc1ccc(-n2cccn2)nn1`, the cytotoxicity at 70.5 h worked out at 12.3%.

In the case of `Cc1cccc(CC2COCCN(Cc3nccn3C)C2)n1` (centres undefined), the cytotoxicity at 70.5 h was -2.76%.

Turning to `CN(CC(=O)N1CCN(c2ncccn2)CC1)c1ccc(Cl)cn1`, the cytotoxicity at 70.5 h was -7.47%. Consider `CC(C)N1CCC(N2CCCC(C(=O)NCC3(O)CCCCC3)C2)CC1` (centres undefined), for which the cytotoxicity at 70.5 h is -3.9%.

Regarding `Cc1cc(N(C)C)nc(C2(C)CCCN2C(=O)c2cnccn2)n1` (centres undefined), the cytotoxicity at 70.5 h is -21.4%. In the case of `Fc1cccc(N2CCCC3(CN(Cc4cccnc4)CCO3)C2)c1` (centres undefined), the cytotoxicity at 70.5 h was -6.89%. To `CCOc1ccc(CC(CNC(=O)c2occc2C)C(N)=O)cc1` (centres undefined) belongs 6.46%; to `CN1CCN(Cc2cccc(NCc3cc[nH]n3)c2)CC1`, -5.29%; to `CCOCCN1CCN(CC(O)c2ccc(OC)cc2)CC1` (centres undefined), 36.2%. `Cc1cc2nc(CO[C@H]3CN(C4CCCCC4)C[C@H]3F)[nH]c2cc1C`: the cytotoxicity at 70.5 h is 3.34%. Take `O=C(c1scc2c1OCCO2)N1CCOC(Cc2cccc(F)c2)C1` (centres undefined): the cytotoxicity at 70.5 h was -5.83%. With `CC1CCCCN1Cc1ccc(-c2ccccc2C(=O)O)cc1` (centres undefined), the cytotoxicity at 70.5 h came out at 0.911%. As to `COCCN(Cc1ccc(F)cc1Cl)C(=O)c1cccc[n+]1[O-]`, the cytotoxicity at 70.5 h was -0.551%.

With `O=C1CO[C@@H]2CN(C3CCOCC3)C[C@H]2N1Cc1cccc(F)c1`, the cytotoxicity at 70.5 h was -6.55%. Regarding `O=C(Nc1cnccn1)[C@H]1COC[C@H]2CN(c3ncc(F)cn3)C[C@H]21`, the cytotoxicity at 70.5 h was -5.25%. `Cc1cc(F)c2c(c1)CCCN2C(=O)c1cncc(Br)c1`: the cytotoxicity at 70.5 h came out at 0.703%. Take `NCC1CCCN(c2nc(-c3ccccc3)nc3c2CCNCC3)C1` (centres undefined): the cytotoxicity at 70.5 h is 5.19%. For `CN(C)C(=O)N1CCN(Cc2ccccc2)[C@@H]2CS(=O)(=O)C[C@@H]21`, the cytotoxicity at 70.5 h is -7.42%. Under `Cc1nc(O)cc(C2CCCN(C(=O)CN(C)c3ccccc3)C2)n1` (centres undefined) stands 1.65%. On to `O=C(Cn1nc(N2CCOCC2)ccc1=O)Nc1nccs1`, for which the cytotoxicity at 70.5 h came out at 15%. Under `O=C(NCC1CCCOC1)c1ccc(-c2cccs2)[nH]c1=O` (centres undefined) stands 4.28%; under `COc1ccc(N2Cc3nc(=O)[nH]n3C2=O)cc1`, 6.34%. On to `Cn1cc(Br)c(=O)c(NS(=O)(=O)c2ccc(F)cc2)c1`, for which the cytotoxicity at 70.5 h came to 16.4%. As for `CCOC(=O)CCNC(=O)N1CCN(c2nc3ccccc3n2C)CC1`, the cytotoxicity at 70.5 h was -9.85%. Regarding `Cc1cccc(C(=O)N2CCN(C)CC2)c1NC(=O)c1ccncc1`, the cytotoxicity at 70.5 h turned out to be 17.6%.

`COCC1COCCC12CCN(C(=O)COc1ccccc1C)CC2` (centres undefined): the cytotoxicity at 70.5 h was -2.98%. For `COCCN1CCC2(CC1)CN(C(=O)c1ccccc1)CCO2`, the cytotoxicity at 70.5 h was -5.3%. As for `O=C(Nc1ccccc1)N1CCn2c(nnc2C2CCNCC2)C1`, the cytotoxicity at 70.5 h is -9.29%.

For `OCC1CCN(Cc2cc3c(cc2Br)OCCO3)CC1`, the cytotoxicity at 70.5 h was 17.4%. To `CCN(C1CCN(c2cccc(F)c2C(C)=O)CC1)S(C)(=O)=O` belongs -5.28%.

(Values after ChEMBL document CHEMBL3507680, “University of Dundee, Gates Library screen for HepG2 cell viability”.)
